In patent US20230391776A1, “AMIDE OXAZOLE COMPOUND” (MEDSHINE DISCOVERY INC., priority 2020, published 2023):

What was measured:
[1] = tested on: TNF-α production in THP-1 cells; experiment: TNF-α ELISA in LPS-stimulated THP-1 cells; type: cell-based; details: Homo sapiens, TNF-α in supernatant, 150 ng/mL LPS, 18 hours
Protocol: THP-1 human acute single cell leukemia cells were purchased from ATCC (Cat #TIB-202) and cultured at 37° C. in 5% CO2 incubator. The composition of medium was RPMI1640 (Gibco, Cat #22400-105), and the supplementary compositions were 10% FBS (Gibco, Cat #10091148); 1% PenStrep (Gibco, Cat #15140); 0.05 mM β-mercaptoethanol (Sigma, Cat #M6250).
TNF-α Elisa kit was used to detect the content of TNF-α in cell culture supernatant samples. TNF-α was produced by stimulating THP-1 cells with 150 ng/mL LPS (Sigma, Cat #L6529).
THP-1 cells cultured normally at logarithmic growth period were seeded in a 96-well plate (Corning #3599) at a certain concentration (1*10^5/100 μL) and then put into a cell incubator for incubation. After two hours, 16.7 μL of different concentrations of the compound to be tested (8*final concentration) were added and incubated in an incubator. After one hour, 16.7 μL of 1200 ng/mL LPS was added and incubated in an incubator. After 18 hours, the culture supernatant samples were collected by centrifugation, and the content of TNF-α could be detected by TNF-α Elisa kit. Finally, OD signals (OD450-OD570) were read on envision board reader.
The OD450-OD570 signal value was converted into a percentage inhibition rate.
Inhibition rate %=(ZPE−sample)/(ZPE−HPE)*100.
“HPE” referred to the OD450-OD570 signal value of the control well without LPS stimulated cells, and “ZPE” referred to the OD450-OD570 signal value of the control well with LPS stimulated cells. The IC50 value of the compound was calculated by XLFit in the excel add-in.
Y=Bottom+(Top−Bottom)/(1+(IC50/X)^HillSlope). Equation: […]

human IRAK4 = molecular target: T1, human IRAK4 (Homo sapiens, UniProt Q9NWZ3); experiment: In vitro IRAK4 kinase activity, 33P isotope-labeled kinase assay; type: biochemical
T1 construct: purchased Reaction Biology Corp
T1 sequence (Q9NWZ3 1-460): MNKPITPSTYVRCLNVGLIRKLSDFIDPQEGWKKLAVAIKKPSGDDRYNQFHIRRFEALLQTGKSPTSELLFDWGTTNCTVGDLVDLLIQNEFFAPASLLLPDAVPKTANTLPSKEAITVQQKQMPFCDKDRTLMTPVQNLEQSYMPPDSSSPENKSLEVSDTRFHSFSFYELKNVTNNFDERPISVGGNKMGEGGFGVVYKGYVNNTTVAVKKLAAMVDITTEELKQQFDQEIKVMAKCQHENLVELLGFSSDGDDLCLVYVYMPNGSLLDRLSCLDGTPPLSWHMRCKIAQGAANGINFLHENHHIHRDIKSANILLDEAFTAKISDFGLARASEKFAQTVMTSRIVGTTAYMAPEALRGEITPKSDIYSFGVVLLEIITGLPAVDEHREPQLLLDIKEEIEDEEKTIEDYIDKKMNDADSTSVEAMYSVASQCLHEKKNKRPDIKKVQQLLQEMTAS
Protocol: The IC50 values were determined using ^33P isotope-labeled kinase activity assay (Reaction Biology Corp) to evaluate the inhibitory ability of the tested compounds on human IRAK4.
(§1) Buffer conditions: 20 mM Hepes (pH 7.5), 10 mM MgCl2, 1 mM EGTA, 0.02% Brij35, 0.02 mg/mL BSA, 0.1 mM Na3VO4, 2 mM DTT, 1% DMSO.
Test procedure: At room temperature, the tested compound was dissolved in DMSO and a 10 mM solution was prepared for use. The substrate was dissolved in a newly prepared buffer solution, and the tested IRAK4 kinase was added thereto and mixed evenly. The DMSO solution dissolved with the tested compound was added to the above mixed evenly reaction solution using acoustic technique (Echo 550). After incubation for 15 minutes, ^33P-ATP was added to initiate the reaction. The reaction was carried out at room temperature for 120 minutes, and the reaction mixture was dropped on P81 ion exchange filter paper (Whatman #3698-915). The filter paper was washed repeatedly with 0.75% phosphoric acid solution, and the radioactivity of phosphorylated substrate residues on the filter paper was determined. The kinase activity data were expressed by comparing the kinase activity of the group containing the tested compound with the kinase activity of the blank group (only containing DMSO), and the IC50 value was obtained by curve fitting by Prism4 software (GraphPad), the experimental results were shown in Table 2.

[2] = tested on: OCI-LY10 human diffuse large B lymphoma cells; experiment: OCI-LY10 cell proliferation (Cell Titer Glo); type: cell-based; details: 72 hours
Protocol: (§2) The tumor cell lines OCI-LY10 and TMD-8 were used to detect the effect of the compound of the disclosure on inhibiting tumor cell proliferation in vitro.
OCI-LY10 human diffuse large B lymphoma cells, from Nanjing Cobioer Biotechnology Co., Ltd
(§3) The compound was diluted with DMSO to a final concentration of 10 mM. The compound was freshly prepared and ready for use.
(§4) a) Logarithmic growth period cells were collected, counted, resuspended with complete culture medium, the cell concentration was adjusted to an appropriate concentration (determined according to the results of cell density optimization test), inoculated on 96-well plates, and 100 μL of cell suspension was added to each well. Cells were incubated in an incubator with 37° C., 100% relative humidity and 5% CO2 for 24 hours.
(§5) b) The compound to be tested was diluted to 50 μM with culture medium and then gradient diluted for 8 times. Cells were added with 25 μL/well. The final concentrations of the compound were from […], 3-fold gradient dilution, with a total of 9 concentration points.
(§6) c) Cells were incubated in an incubator with 37° C., 100% relative humidity and 5% CO2 for 72 hours;
(§7) d) 60 μL of CTG test reagent was added to the culture medium.
(§8) e) Shaked fully and reacted in the dark for 10 min. Luminescence was measured on ENVISION and the inhibition rate was calculated.
(§9) Cell growth inhibition rate %=[(RLUv−RLUs)/(RLUv−RLUb)]×100%

OCI-LY3 cell line = experiment: OCI-LY3 cell proliferation (CTG); type: cell-based; details: Homo sapiens, 72 hours
Protocol: The tumor cell line OCI-LY3 was used to detect the effect of the compound of the disclosure on inhibiting tumor cell proliferation in vitro.
The tumor cell line used in this experiment was provided by Nanjing Cobioer Biotechnology Co., Ltd. See Table 6 below for specific information.
The OCI-LY3 cell line was cultured in the corresponding medium at 37° C. and 5% CO2, and the logarithmic growth period cells were used for experimental planking. The cells were collected and centrifuged at 800 rpm for 5 minutes, and the culture medium was re-suspended and spread in a 96-well plate. After being cultured overnight in 37° C., 5% CO2 incubator, drugs with different concentration gradients (10 μL of prepared diluent of test compound was added) were added, and incubated in 37° C., 5% CO2 incubator for 72 hours. The cell culture plate was incubated with CTG reagent at room temperature in the dark for 30 minutes and return to room temperature. CTG solution was added into the biosafety cabinet in the dark 100 μL/well, and was shaken and mixed evenly on plate shaker in the dark for 2 minutes, and incubated at room temperature in the dark for 10 minutes. The luminous value was read and recorded with Perkin Elmer Envision instrument.
The luminous value of the blank control group was subtracted from the luminous value measured at each drug concentration, the ratio of this value to DMSO group was taken as the cell inhibition rate (%). GraphPad software was used, the logarithm of drug concentration (log drug concentration) versus inhibition rate was plotted, and the IC50 value and 95% confidence value were automatically fitted and calculated by log (inhibitor) vs. response-variable slop (four parameters) algorithm of nonlinear regression by software.

human BTK = molecular target: T2, human BTK (Homo sapiens, UniProt Q06187); experiment: In vitro BTK kinase activity, 33P isotope-labeled kinase assay; type: biochemical
T2 construct: purchased Reaction Biology Corp
T2 sequence (Q06187 whole entry): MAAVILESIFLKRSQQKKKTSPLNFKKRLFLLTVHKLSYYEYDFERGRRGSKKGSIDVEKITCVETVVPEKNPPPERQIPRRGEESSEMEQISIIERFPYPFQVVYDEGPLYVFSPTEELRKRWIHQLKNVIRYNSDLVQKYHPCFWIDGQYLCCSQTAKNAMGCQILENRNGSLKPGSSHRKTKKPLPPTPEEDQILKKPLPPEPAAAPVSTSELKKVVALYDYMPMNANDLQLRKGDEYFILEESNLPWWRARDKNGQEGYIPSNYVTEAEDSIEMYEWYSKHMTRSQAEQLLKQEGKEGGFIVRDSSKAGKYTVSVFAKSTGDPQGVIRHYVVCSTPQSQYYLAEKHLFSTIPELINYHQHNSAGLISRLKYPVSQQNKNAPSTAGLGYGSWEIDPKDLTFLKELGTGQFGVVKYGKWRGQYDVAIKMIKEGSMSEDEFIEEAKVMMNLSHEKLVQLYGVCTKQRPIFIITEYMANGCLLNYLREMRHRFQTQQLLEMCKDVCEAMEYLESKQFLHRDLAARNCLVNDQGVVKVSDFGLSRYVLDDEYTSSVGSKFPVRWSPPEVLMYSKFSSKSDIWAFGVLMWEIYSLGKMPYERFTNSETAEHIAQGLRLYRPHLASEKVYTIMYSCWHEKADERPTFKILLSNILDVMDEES
Protocol: The IC50 values were determined using ^33P isotope-labeled kinase activity assay (Reaction Biology Corp) to evaluate the inhibitory ability of the tested compounds on human BTK.
as §1
Test procedure: At room temperature, the tested compound was dissolved in DMSO and a 10 mM solution was prepared for use. The substrate was dissolved in a newly prepared buffer solution, and the BTK kinase was added thereto and mixed evenly. The compound dissolved in DMSO was added to the kinase reaction mixture through Echo 550 (Acoustic technology; Nanoliter range). After incubation for 20 minutes at room temperature, ^33P-ATP was added to initiate the reaction. The reaction was carried out at room temperature for 2 hours, and the radioactivity of the reaction solution drop was detected by filtration-binding method with P81 ion exchange filter paper. The kinase activity data were expressed by comparing the kinase activity of the group containing the tested compound with the kinase activity of the blank group (only containing DMSO), and the IC50 value was obtained by curve fitting by Prism4 software (GraphPad), the experimental results were shown in Table 3.

[3] = tested on: TMD-8 human diffuse large B lymphoma cells; experiment: TMD-8 cell proliferation (Cell Titer Glo); type: cell-based; details: TMD8, 72 hours
Protocol: as §2
TMD-8 human diffuse large B lymphoma cells, from Nanjing Cobioer Biotechnology Co., Ltd
as §3, §4, §5, §6, §7, §8, §9

| Structure (SMILES) | IC50 [1] | IC50 (human IRAK4) | IC50 [2] | IC50 (OCI-LY3 cell line) | IC50 (human BTK) | IC50 [3] |
| --- | --- | --- | --- | --- | --- | --- |
| CC(C)(O)CCc1cn2cc(NC(=O)c3coc(-c4ccnc(N)c4)n3)c(N3CCCCC3)cc2n1 [WX001] | 20 nM | 1.8 nM | 29 nM | 57 nM | 7.9 nM | 10 nM |
| CC(=O)Nc1cc(-c2nc(C(=O)Nc3cn4cc(CCC(C)(C)O)nc4cc3N3CCCCC3)co2)ccn1 [WX002] | 116 nM | 6.6 nM | 125 nM |  |  |  |
| COc1cc(-c2nc(C(=O)Nc3cn4cc(CCC(C)(C)O)nc4cc3N3CCCCC3)co2)ccn1 [WX003] |  | 0.6 nM |  |  | 15.4 nM |  |
| CN(C)c1cc(-c2nc(C(=O)Nc3cn4cc(CCC(C)(C)O)nc4cc3N3CCCCC3)co2)ccn1 [WX004] |  | 12 nM |  |  |  |  |
| CC(C)(O)CCc1cn2cc(NC(=O)c3coc(-c4ccnc5[nH]ccc45)n3)c(N3CCCCC3)cc2n1 [WX005] | 171 nM | 1.5 nM |  |  | 0.6 nM | 325 nM |
| CNc1cc(-c2nc(C(=O)Nc3cn4cc(CCC(C)(C)O)nc4cc3N3CCCCC3)co2)ccn1 [WX006] | 94 nM | 1 nM | 36 nM |  | 0.7 nM | 183 nM |
| Cc1cc(-c2nc(C(=O)Nc3cn4cc(CCC(C)(C)O)nc4cc3N3CCC4(CCOC4)CC3)co2)ccn1 [WX007] |  | 0.4 nM |  |  | 4.1 nM |  |
| Cc1cc(-c2nc(C(=O)Nc3cn4cc(CCC(C)(C)O)nc4cc3N3CCC4(CC3)COC4)co2)ccn1 [WX008] |  | 4.3 nM |  |  | 71 nM |  |
| Cc1cc(-c2nc(C(=O)Nc3cn4cc(C(C)(C)O)nc4cc3N3CCC(CO)CC3)co2)ccn1 [WX010] |  | 2.1 nM |  |  | 21.2 nM |  |
| CS(=O)(=O)CCc1cn2cc(NC(=O)c3coc(-c4ccnc(N)c4)n3)c(N3CCCCC3)cc2n1 [WX011] |  | 4.7 nM | 6 nM | 26 nM | 1.3 nM | 28 nM |
| Cc1cc(-c2nc(C(=O)Nc3cn4cc(CCS(C)(=O)=O)nc4cc3-c3ccccc3)co2)ccn1 [WX012] |  | 0.4 nM | 20 nM |  | 14.4 nM |  |
| CN(C)CCc1cn2cc(NC(=O)c3coc(-c4ccnc(N)c4)n3)c(N3CCCCC3)cc2n1 [WX014] |  | 2.5 nM | 18 nM | 41 nM | 0.5 nM | 40 nM |
| Cc1cc(-c2nc(C(=O)Nc3cn4cc(CCN(C)C)nc4cc3-c3ccccc3)co2)ccn1 [WX015] | 60 nM | 0.4 nM | 36 nM |  | 5.6 nM |  |
| CN(C)CCc1cn2cc(NC(=O)c3coc(-c4ccnc(N)c4)n3)c(-c3ccccc3)cc2n1 [WX016] |  | 2 nM | 3 nM | 37 nM | 1.6 nM | 6 nM |
| Cc1cc(-c2nc(C(=O)Nc3cn4cc(C(C)(C)O)nc4nc3-c3ccccc3)co2)ccn1 [WX018] |  | 5.1 nM |  |  |  |  |
| Cc1cc(-c2nc(C(=O)Nc3cn4cc(C(C)(C)O)nc4cc3-c3ccccn3)co2)ccn1 [WX021] |  | 0.3 nM |  |  | 19.8 nM |  |
| COc1cc(-c2nc(C(=O)Nc3cn4cc(C(C)(C)O)nc4cc3-c3ccccc3)co2)ccn1 [WX022] |  | 0.1 nM |  |  | 45 nM |  |
| CNc1cc(-c2nc(C(=O)Nc3cn4cc(C(C)(C)O)nc4cc3-c3ccccc3)co2)ccn1 [WX023] |  | 0.1 nM | 14 nM |  | 1 nM |  |
| Cc1cc(-c2nc(C(=O)Nc3cn4cc(CC(N)=O)nc4cc3-c3ccccc3)co2)ccn1 [WX025] |  | 0.1 nM |  |  |  |  |
| Cc1nccc(-c2nc(C(=O)Nc3cn4cc(C(C)(C)O)nc4cc3-c3ccccc3)co2)c1F [WX028] |  | 0.1 nM |  |  |  |  |
| Cc1cc(-c2nc(C(=O)Nc3cn4cc(S(C)(=O)=O)nc4cc3-c3ccccc3)co2)ccn1 [WX029] |  | 0.1 nM | 48 nM |  |  |  |
| Cc1cc(-c2nc(C(=O)Nc3cn4cc(N=S(C)(C)=O)nc4cc3-c3ccccc3)co2)ccn1 [WX032] |  | 0.9 nM |  |  |  |  |
| Cc1nccc(-c2nc(C(=O)Nc3cn4cc(C(C)(C)O)nc4cc3-c3ccccc3)co2)c1Cl [WX036] | 57.1 nM | 0.4 nM | 15.2 nM | 42 nM |  | 16.7 nM |
| Cc1cc(-c2nc(C(=O)Nc3cn4cc(CC(C)(C)O)nc4cc3-c3ccccc3)co2)ccn1 [WX038] |  | 0.3 nM |  |  |  |  |
